Test results from patent US20090181409A1, “Optical biosensor method for cell-cell interaction” (priority 2008, published 2009).

How the values were obtained:
RhoA = RhoA (Homo sapiens, UniProt P61586); conditions: cited from earlier work
D1 cells = experiment: NK92 cell-induced optical signal of D1 cells (Epic RWG biosensor), modulation by pharmacological agents; type: cell-based, mouse; conditions: D1 cells pretreated with agent for 1 hour before NK cells; killer:target ratio 1; 28° C.
Experimental: The impact of six pharmacological agents was examined on the NK92 cell-induced optical signal of D1 cells. […] Brefeldin A (BFA), and Camptothecin are defined above. Kp7-6 is an exocyclic cystine-knot peptide that specifically antagonizes Fas/FasL-mediated cellular apoptotic signals, for example, it can reduce 58% of FasL-induced apoptosis in Jurkat cells at 1 mg/mL. Latrunculin inhibits actin polymerization in vitro and disrupts microfilament organization as well as microfilament-mediated processes. […] Wortmannin is a potent, selective, cell-permeable and irreversible inhibitor of phosphatidylinositol 3-kinase.
Cell culture—Natural killer cells-NK92MI and the multipotent mouse bone marrow D1 cell line were from American Type Culture Collection (Manassas, Va.). NK92MI cells were grown in RPMI medium plus 12.5% horse serum and 12.5 fetal bovine serum (FBS) and antibiotics. D1 cells were grown in Dulbecco's Modified Eagle's Medium supplemented with 10% fetal bovine serum (FBS) and antibiotics. Approximately 1×10^4 to 2×10^4 target cells of D1 in 50 μL medium were placed in each well of Epic® 384-well microplate. After cell seeding, the cells were cultured at 37° C. under air/5% CO2 until a high degree, e.g., 90% of confluence was reached (about 24 hrs). Cells were continuously cultured overnight in their corresponding media without any serum to keep cells at a quiescent state and cell confluence was over about 95%.
Epic® system and DMR assays—Epic® beta system was used during this study. For cell-cell interaction study, target cell density was at about 95-100% confluence and the cells were finally maintained with the appropriate medium as described above. Cell number of NK92MI was counted with Beckman Coulter Particle Counter. Unless stated otherwise, a ratio of 1 between killer cells and target cells was used. NK92MI cells were suspended in RPMI plus 2% FBS. A 20 μL aliquot of NK92MI solution was added to each well of a normal 384-well microplate (Corning Inc., Corning, N.Y.). The plates of the target cells and the natural killer cells were incubated in the Epic® instrument for at least 30 minutes to reach 28° C. For pharmacological agent studies, the D1 cells were pretreated with the agents for 1 hour before NK cells were introduced. All studies were carried out at 28° C. for consistency and having the lid of the microplate continuously on except for a short period of time (e.g., about seconds) when the solution was introduced to minimize the effect of temperature fluctuation and evaporative cooling.

CHO-ICAM1 cells = experiment: NK92 cell-induced N-DMR signal of CHO-ICAM1 cells (Epic RWG biosensor), modulation by pharmacological agents; type: cell-based, Chinese hamster; conditions: CHO-ICAM1 cells pretreated with agent for 1 hour before NK cells; killer:target ratio 1; 28° C.
Text: The impacts of four pharmacological agents were examined on the NK92 cell-induced DMR signal of CHO-ICAM1 cells. FIG. 4 illustrate the modulation profile (response v. modulator concentration in microM) of the natural killer cell-induced DMR signal of the target cell layer by four different modulators at different doses:
Cell culture—Natural killer cells-NK92MI, both parental CHO-K1 and engineered CHO expressing ICAM1 receptor (CHO-ICAM1) were purchased from American Type Culture Collection (Manassas, Va.). NK92MI cells were grown in RPMI medium plus 12.5% horse serum and 12.5 fetal bovine serum (FBS) and antibiotics. CHO-K1 cells and CHO-ICAM1 cells were grown in RPMI supplemented with 10% fetal bovine serum (FBS) and antibiotics. Approximately 1-2×10^4 target cells of CHO-K1 or CHO-ICAM1 in 50 μl medium were placed in each well of Epic® 384-well microplate. After cell seeding, the cells were cultured at 37° C. under air/5% CO2 until a high degree, e.g. 90%, of confluence was reached (e.g., about 24 hrs). Cells were continuously cultured for over night with their corresponding media without any serum to keep cells at a quiescent state and cell confluence was over 95%.
Epic® system and DMR assays—An Epic® beta system was used during this study. For cell-cell interaction study, target cell density was at 95-100% confluence and the cells were finally maintained with the appropriate medium as described above. Cell number of NK92MI was counted with Beckman Coulter Particle Counter (Beckman Coulter, Fullerton, Calif.). Unless stated otherwise, a ratio of 1 between killer cells and target cells was used. NK92MI cells were suspended in RPMI plus 2% FBS. A 20-microliter solution of NK92MI was aliquoted to each well of a normal 384-well microplate (Corning Inc., Corning, N.Y.). The plates of the target-cell and the natural killer cell were incubated in the Epic® instrument for at least 30 minutes to reach 28° C. For pharmacological agent studies, the Icam1 cells had been pretreated with the agents for 1 hour before the NK cells were introduced. All studies were carried out at 28° C. with the lid of the microplate on except for a short period of time (e.g., about several seconds) when the solution was introduced, in order to minimize the effect of temperature fluctuation and evaporative cooling.

Chain of RhoA (P61586 whole entry, species assumed): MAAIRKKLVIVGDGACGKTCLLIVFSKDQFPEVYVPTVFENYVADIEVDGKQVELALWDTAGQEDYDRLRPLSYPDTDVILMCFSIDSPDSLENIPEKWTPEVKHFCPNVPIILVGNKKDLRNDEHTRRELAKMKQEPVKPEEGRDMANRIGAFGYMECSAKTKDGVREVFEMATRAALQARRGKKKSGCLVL

Structure (SMILES)	effect on RhoA activation (RhoA)	effect on NK92-induced signals of D1 cells (D1 cells)	effect on NK92-induced N-DMR of CHO-ICAM1 cells (CHO-ICAM1 cells)
CCN(CC)CCCC(C)Nc1nc(C)cc(Nc2ccc3nc(C)cc(N)c3c2)n1 (racemic) [Rac1 inhibitor]	no effect	dose dependently increases	
C[C@H]1CCC/C=C/[C@@H]2C[C@H](O)C[C@H]2[C@H](O)/C=C/C(=O)O1 [BFA, Brefeldin A]		dose dependently increases	dose dependently increases
N#CC(=C(/N)Sc1ccccc1N)/C(C#N)=C(\N)Sc1ccccc1N [U0126]			dose-dependently suppressed
CC[C@@]1(O)C(=O)OCc2c1cc1n(c2=O)Cc2cc3ccccc3nc2-1 [camptothecin, Camptothecin]		dose dependently increases	dose dependently increases
COC(=O)CC[C@H](NC(=O)[C@H](CC(=O)OC)NC(=O)OCc1ccccc1)C(=O)N[C@H](C(=O)N[C@@H](CC(=O)OC)C(=O)CF)C(C)C [caspase 3 inhibitor]			little effect
C/C1=C/C(=O)O[C@@H]2C[C@@H](CC[C@H](C)/C=C\C=C\CC1)O[C@@](O)([C@@H]1CSC(=O)N1)C2 [latrunculin A]		dose dependently increases	
CC[C@]1(O)C[C@@H]2CN(CCc3c([nH]c4ccccc34)[C@@](C(=O)OC)(c3cc4c(cc3OC)N(C)[C@H]3[C@@](O)(C(=O)OC)[C@H](OC(C)=O)[C@]5(CC)C=CCN6CC[C@]43[C@@H]65)C2)C1 [vinblastine, Vinblastine]			dose dependently increases
